# Source: patent US4939163A, “Anticonvulsant agents” (Eli Lilly and Company, priority 1989, dated 1990)
# Tested on: tonic extensor seizures elicited by maximal electroshock
# Assay: electroshock induced convulsion inhibition assay (E.S.)
# Assay type: in vivo, Cox standard strain albino male mice
# Conditions: mouse, oral dose (gavage), 0.1 second 50 milliampere corneal electroshock, inhibition of extensor tonic convulsions, at time of optimal response
# Description: In the electroshock induced convulsion inhibition assay (E.S.), the compound to be tested was suspended in acacia and administered by gavage to each of ten Cox standard strain albino male mice (18-24 g) at the dose level being investigated. […] The animals were examined and evaluated immediately after the electroshock for the occurrence of clonic, flexor tonic, or extensor tonic convulsions, or death and the ED50 was determined for each compound as the dose which inhibited the occurrence of extensor tonic convulsions in one half of the animals immediately after the electroshock. For comparison, 18 milliamperes was usually sufficient to produce extensor tonic convulsions in about half of the control animals; at 50 milliamperes, almost all control animals (receiving vehicle only) died. The test results summarized in Table I are reported as the ED50 values at the time interval found to provide an optimal response after dosing.
row,Structure (SMILES),ED50 [mg/kg]
1,"Cc1cccc(C)c1NC(=O)c1ccc(C(F)(F)F)cc1 [Example 1, N-(2,6-dimethylphenyl)-4-(trifluoromethyl)benzamide]",~225
2,"Cc1cccc(C)c1NC(=O)c1ccc(C(N)=O)cc1 [Example 12, N-(2,6-Dimethylphenyl)-1,4-benzenedicarboxamide]",~75
3,"Cc1cccc(C)c1NC(=O)c1ccc(O)cc1 [Example 15, N-(2,6-dimethylphenyl)-4-hydroxybenzamide]",11.2
4,"Cc1cccc(C)c1NC(=O)c1ccc([S+](C)[O-])cc1 (stereo not shown) [Example 13, N-(2,6-dimethylphenyl)-4-(methylsulfinyl)benzamide]",13
5,"CNc1ccc(C(=O)Nc2c(C)cccc2C)cc1 [Example 8, N-(2,6-dimethylphenyl)-4-(methylamino)benzamide]",2
6,"Cc1ccc(C(=O)Nc2c(C)cccc2C)cc1 [Example 3, N-(2,6-dimethylphenyl)-4-methylbenzamide]",~250
7,"Cc1cccc(C)c1NC(=O)c1ccc(S(C)(=O)=O)cc1 [Example 14, N-(2,6-dimethylphenyl)-4-(methylsulfonyl)benzamide]",14
8,"Cc1cccc(C)c1NC(=O)c1ccc(-n2ccnc2)cc1.Cl [Example 10, N-(2,6-dimethylphenyl)-4-(1H-imidazol-1-yl)benzamide hydrochloride]",~50
9,"Cc1cccc(C)c1NC(=O)c1ccc(CN)cc1.Cl [Example 11, 4-(Aminomethyl)-N-(2,6-dimethylphenyl)benzamide hydrochloride]",38
10,"Cc1cccc(C)c1NC(=O)c1ccc(N(C)C)cc1 [Example 6, 4-(Dimethylamino)-N-(2,6-dimethylphenyl)benzamide]",3.65
11,"COc1ccc(C(=O)Nc2c(C)cccc2C)cc1 [Example 4, N-(2,6-dimethylphenyl)-4-methoxybenzamide]",15
12,"CCNc1ccc(C(=O)Nc2c(C)cccc2C)cc1 [Example 7, N-(2,6-dimethylphenyl)-4-(ethylamino)benzamide]",2.45
13,"Cc1cccc(C)c1NC(=O)c1ccc(C#N)cc1 [Example 2, 4-Cyano-N-(2,6-dimethylphenyl)benzamide]",13.2
14,"CSc1ccc(C(=O)Nc2c(C)cccc2C)cc1 [Example 5, N-(2 6-dimethylphenyl)-4-(methylthio)benzamide]",~75
15,"CCCN(C)c1ccc(C(=O)Nc2c(C)cccc2C)cc1 [Example 9, N-(2,6-dimethylphenyl)-4-(methylpropylamino)benzamide]",4.6

# Tested on: seizures in man
# Assay: not given
# Conditions: Gilman, Goodman, and Gilman, 6th Ed., p. 455; cited from earlier work
row,Structure (SMILES),plasma level at which seizures are controlled [µg/mL]
1,O=C1NC(=O)C(c2ccccc2)(c2ccccc2)N1 [phenytoin],≥ 10
